Source: publication PMC7486443, “Generation of Phenothiazine with Potent Anti-TLK1 Activity for Prostate Cancer Therapy” (iScience, 2020)

Columns and labels:
Assay in all cases: biochemical
Details in all cases: KINOMEscan binding, percent of control; read-out: Table S4_SCANMAX REPORT - related to Fig. 1 / Percent Control
[1] = biological target: DYRK1B (Homo sapiens, UniProt Q9Y463); parameters: DiscoverX KINOMEscan scanMAX competition binding panel, single concentration, percent of control; dose or concentration left out as unconfirmed
Sequence of DYRK1B (Q9Y463 whole entry): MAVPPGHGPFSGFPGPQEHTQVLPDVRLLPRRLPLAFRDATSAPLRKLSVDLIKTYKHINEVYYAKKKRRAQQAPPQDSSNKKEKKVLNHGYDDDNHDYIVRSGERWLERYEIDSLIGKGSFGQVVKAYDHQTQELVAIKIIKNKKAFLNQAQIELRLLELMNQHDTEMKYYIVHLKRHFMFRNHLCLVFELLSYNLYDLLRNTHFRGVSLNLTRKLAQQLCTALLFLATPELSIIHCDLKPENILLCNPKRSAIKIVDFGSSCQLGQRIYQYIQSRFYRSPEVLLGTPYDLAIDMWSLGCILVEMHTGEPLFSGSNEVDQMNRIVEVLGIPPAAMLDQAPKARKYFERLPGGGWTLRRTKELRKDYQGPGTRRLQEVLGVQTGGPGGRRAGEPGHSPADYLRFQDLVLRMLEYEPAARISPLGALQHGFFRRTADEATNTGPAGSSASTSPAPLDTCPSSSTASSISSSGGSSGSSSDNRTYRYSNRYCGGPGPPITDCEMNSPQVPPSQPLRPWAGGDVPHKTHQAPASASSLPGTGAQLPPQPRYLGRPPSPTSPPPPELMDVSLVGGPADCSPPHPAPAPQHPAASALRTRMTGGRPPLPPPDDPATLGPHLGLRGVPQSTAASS
From the text: (§1) Certain PTH are potent inhibitors of TLK1 ([Ronald et al., 2013]), and by inference TLK2, as these proteins must homo- and hetero-dimerize for full activation ([Mortuza et al., 2018]), in addition to being highly similar in sequence and structure, and thus similarly targetable. […] Two noteworthy observations are that PTHs are structurally different from many known ATP competitive inhibitors, and that J54 was carefully designed based on considerations reported previously for the THD—the Kinomescan has confirmed that J54 is specific to TLKs. We should point out that although PTH were the first reported inhibitors of TLKs ([Ronald et al., 2013]), other inhibitors particularly of TLK2 have since been reported ([Kim et al., 2016]), some based on structure docking ([Mortuza et al., 2018]), although neither their potency and effects in vivo nor their potential off-target effects have not been reported as they were selected from libraries of kinase inhibitors. Supplementary file mmc2.xlsx: Table S4. SCANMAX Table, Related to Figure 1 Kinomescan of J54 inhibitory activity on human kinases.

[2] = biological target: STK33 (Homo sapiens, UniProt Q9BYT3); parameters: DiscoverX KINOMEscan scanMAX competition binding panel, single concentration, percent of control; dose or concentration left out as unconfirmed
Sequence of STK33 (Q9BYT3 whole entry): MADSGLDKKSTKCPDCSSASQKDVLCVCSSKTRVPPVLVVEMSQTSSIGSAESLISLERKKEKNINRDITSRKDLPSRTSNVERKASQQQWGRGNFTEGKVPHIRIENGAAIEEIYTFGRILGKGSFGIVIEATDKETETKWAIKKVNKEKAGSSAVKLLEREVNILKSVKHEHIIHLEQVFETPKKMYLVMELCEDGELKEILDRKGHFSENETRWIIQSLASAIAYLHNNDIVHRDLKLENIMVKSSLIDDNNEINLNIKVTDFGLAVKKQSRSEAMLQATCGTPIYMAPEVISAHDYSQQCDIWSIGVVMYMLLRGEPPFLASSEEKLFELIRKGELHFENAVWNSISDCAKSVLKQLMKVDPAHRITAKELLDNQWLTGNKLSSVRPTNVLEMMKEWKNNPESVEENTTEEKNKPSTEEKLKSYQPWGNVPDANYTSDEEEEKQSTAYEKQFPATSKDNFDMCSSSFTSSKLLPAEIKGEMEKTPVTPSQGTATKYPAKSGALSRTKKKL
From the text: as §1

[3] = biological target: LTK (Homo sapiens, UniProt P29376); parameters: DiscoverX KINOMEscan scanMAX competition binding panel, single concentration, percent of control; dose or concentration left out as unconfirmed
Sequence of LTK (P29376 whole entry): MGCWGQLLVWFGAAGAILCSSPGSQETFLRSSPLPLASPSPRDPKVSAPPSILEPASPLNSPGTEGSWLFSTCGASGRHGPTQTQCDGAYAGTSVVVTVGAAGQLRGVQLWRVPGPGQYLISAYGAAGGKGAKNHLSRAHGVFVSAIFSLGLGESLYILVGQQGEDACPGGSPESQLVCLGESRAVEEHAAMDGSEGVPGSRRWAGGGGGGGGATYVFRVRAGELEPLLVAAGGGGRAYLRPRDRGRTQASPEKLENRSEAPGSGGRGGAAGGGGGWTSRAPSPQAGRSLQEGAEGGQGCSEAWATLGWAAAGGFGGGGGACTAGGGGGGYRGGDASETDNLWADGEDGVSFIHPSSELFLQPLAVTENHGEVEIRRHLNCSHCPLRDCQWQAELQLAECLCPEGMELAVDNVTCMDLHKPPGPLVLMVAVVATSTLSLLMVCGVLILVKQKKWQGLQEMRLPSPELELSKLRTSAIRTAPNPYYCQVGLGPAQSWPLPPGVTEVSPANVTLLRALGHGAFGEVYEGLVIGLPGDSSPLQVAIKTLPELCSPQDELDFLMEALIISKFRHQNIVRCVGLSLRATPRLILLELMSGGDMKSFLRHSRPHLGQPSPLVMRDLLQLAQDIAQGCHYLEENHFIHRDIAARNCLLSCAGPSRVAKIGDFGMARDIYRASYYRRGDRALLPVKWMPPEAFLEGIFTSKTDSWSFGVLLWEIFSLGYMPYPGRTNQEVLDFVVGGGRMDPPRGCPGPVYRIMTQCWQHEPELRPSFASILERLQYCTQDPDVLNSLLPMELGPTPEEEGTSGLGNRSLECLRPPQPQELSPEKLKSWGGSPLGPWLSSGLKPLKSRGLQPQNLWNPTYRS
From the text: as §1

[4] = biological target: T1, GCN2(Kin.Dom.2,S808G) (Homo sapiens, UniProt Q9P2K8, S808G); parameters: DiscoverX KINOMEscan scanMAX competition binding panel, single concentration, percent of control; remaining binding: dose or concentration left out as unconfirmed
T1 construct: gene EIF2AK4; Kin.Dom.2
T1 sequence (Q9P2K8 whole entry S808G): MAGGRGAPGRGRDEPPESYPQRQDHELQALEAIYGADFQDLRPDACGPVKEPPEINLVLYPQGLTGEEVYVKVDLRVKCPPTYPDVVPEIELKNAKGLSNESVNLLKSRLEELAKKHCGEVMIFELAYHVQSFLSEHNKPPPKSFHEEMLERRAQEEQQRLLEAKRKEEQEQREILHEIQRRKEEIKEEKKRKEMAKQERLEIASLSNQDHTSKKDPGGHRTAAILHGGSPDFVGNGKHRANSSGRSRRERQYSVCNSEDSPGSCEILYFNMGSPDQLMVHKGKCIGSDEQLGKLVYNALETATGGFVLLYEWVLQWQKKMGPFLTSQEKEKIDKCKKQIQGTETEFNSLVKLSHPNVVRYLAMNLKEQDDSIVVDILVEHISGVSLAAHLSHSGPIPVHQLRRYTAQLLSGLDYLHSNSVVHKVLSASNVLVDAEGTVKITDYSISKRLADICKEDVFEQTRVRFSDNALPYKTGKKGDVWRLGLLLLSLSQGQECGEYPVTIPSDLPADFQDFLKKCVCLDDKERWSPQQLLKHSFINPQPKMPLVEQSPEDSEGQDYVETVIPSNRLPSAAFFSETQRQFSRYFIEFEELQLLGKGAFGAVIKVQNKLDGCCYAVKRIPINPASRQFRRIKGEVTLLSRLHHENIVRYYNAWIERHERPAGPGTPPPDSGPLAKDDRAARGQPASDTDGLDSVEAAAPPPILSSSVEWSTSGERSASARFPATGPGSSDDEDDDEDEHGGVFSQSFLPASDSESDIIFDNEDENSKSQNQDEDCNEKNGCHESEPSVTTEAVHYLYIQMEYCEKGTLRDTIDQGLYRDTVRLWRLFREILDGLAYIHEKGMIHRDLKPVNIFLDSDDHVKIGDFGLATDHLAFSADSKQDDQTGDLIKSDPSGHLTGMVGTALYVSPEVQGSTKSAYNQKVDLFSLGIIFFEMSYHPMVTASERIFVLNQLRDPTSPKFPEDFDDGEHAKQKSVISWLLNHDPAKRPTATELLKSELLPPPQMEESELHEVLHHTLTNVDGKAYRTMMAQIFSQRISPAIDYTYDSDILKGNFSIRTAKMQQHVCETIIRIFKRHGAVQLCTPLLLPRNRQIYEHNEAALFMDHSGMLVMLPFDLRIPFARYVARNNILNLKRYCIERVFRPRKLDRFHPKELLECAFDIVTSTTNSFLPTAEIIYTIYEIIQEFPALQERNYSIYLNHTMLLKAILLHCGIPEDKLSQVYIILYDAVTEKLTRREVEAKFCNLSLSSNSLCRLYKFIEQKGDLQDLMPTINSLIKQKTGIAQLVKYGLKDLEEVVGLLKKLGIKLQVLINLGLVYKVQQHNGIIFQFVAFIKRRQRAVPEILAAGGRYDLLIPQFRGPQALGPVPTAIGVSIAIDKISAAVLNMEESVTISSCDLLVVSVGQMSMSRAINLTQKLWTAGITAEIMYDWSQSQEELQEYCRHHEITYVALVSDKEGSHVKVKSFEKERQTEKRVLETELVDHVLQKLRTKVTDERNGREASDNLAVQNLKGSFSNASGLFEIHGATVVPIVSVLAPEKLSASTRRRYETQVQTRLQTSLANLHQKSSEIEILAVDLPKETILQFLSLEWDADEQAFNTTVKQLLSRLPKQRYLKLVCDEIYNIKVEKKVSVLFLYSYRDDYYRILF

[5] = biological target: T2, ADCK4 (Homo sapiens, UniProt Q96D53); parameters: DiscoverX KINOMEscan scanMAX competition binding panel, single concentration, percent of control; remaining binding: dose or concentration left out as unconfirmed
T2 construct: gene COQ8B

[6] = biological target: GSK3B (Homo sapiens, UniProt P49841); parameters: DiscoverX KINOMEscan scanMAX competition binding panel, single concentration, percent of control; remaining binding: dose or concentration left out as unconfirmed
Sequence of GSK3B (P49841 whole entry): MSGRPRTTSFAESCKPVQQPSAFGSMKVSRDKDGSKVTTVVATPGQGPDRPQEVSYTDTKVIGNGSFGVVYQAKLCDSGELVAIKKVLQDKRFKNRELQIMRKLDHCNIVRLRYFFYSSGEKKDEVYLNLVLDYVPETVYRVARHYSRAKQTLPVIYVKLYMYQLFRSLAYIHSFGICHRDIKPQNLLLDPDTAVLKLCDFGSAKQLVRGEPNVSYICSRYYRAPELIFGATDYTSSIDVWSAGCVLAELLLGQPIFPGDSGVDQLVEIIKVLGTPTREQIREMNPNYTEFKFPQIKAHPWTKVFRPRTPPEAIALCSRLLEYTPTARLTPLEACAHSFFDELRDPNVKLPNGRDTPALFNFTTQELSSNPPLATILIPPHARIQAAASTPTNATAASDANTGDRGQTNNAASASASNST

[7] = biological target: T3, BIKE (Homo sapiens, UniProt Q9NSY1); parameters: DiscoverX KINOMEscan scanMAX competition binding panel, single concentration, percent of control; remaining binding: dose or concentration left out as unconfirmed
T3 construct: gene BMP2K

[8] = biological target: T4, PIP5K2B (Homo sapiens, UniProt P78356); parameters: DiscoverX KINOMEscan scanMAX competition binding panel, single concentration, percent of control; remaining binding: dose or concentration left out as unconfirmed
T4 construct: gene PIP4K2B
T4 sequence (P78356 whole entry): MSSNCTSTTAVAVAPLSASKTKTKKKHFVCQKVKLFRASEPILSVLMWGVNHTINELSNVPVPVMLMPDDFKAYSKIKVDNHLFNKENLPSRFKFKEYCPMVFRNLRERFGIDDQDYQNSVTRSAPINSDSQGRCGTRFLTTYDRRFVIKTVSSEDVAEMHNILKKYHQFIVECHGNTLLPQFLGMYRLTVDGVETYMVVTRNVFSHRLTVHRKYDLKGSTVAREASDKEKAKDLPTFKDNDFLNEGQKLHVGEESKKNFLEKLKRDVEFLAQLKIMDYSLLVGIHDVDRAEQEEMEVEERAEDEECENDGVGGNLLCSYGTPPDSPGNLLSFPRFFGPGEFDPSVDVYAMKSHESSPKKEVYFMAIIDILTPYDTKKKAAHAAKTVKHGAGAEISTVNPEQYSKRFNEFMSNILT

[9] = biological target: T5, NIK (Homo sapiens, UniProt Q99558); parameters: DiscoverX KINOMEscan scanMAX competition binding panel, single concentration, percent of control; remaining binding: dose or concentration left out as unconfirmed
T5 construct: gene MAP3K14

[10] = biological target: SBK1 (Homo sapiens, UniProt Q52WX2); parameters: DiscoverX KINOMEscan scanMAX competition binding panel, single concentration, percent of control; remaining binding: dose or concentration left out as unconfirmed
[11] = biological target: T6, CTK (Homo sapiens, UniProt P42679); parameters: DiscoverX KINOMEscan scanMAX competition binding panel, single concentration, percent of control; remaining binding: dose or concentration left out as unconfirmed
T6 construct: gene MATK
T6 sequence (P42679 whole entry): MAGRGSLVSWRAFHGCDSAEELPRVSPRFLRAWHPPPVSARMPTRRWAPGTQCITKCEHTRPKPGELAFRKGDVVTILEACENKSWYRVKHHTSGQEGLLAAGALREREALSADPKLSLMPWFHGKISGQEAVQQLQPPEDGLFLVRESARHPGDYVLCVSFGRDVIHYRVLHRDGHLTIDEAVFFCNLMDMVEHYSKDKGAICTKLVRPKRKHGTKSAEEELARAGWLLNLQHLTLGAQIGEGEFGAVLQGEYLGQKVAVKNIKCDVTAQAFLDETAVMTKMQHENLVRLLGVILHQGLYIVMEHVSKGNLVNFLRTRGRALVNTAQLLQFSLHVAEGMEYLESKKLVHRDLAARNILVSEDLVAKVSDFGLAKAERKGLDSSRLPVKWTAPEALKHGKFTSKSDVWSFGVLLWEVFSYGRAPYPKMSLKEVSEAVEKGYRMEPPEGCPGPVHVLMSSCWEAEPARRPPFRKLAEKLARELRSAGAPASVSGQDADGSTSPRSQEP

## c1ccc2c(c1)Sc1ccccc1N2CCN1CCOCC1 [J54]
[1]
  remaining binding: 54%
[2]
  remaining binding: 100%
[3]
  remaining binding: 100%
[4]
  remaining binding: 100%
[5]
  remaining binding: 75%
[6]
  remaining binding: 100%
[7]
  remaining binding: 52%
[8]
  remaining binding: 51%
[9]
  remaining binding: 100%
[10]
  remaining binding: 93%
[11]
  remaining binding: 95%
